Assay results published in US9018196B2, “Development of a new formulation overcoming thymus atrophy with concomitantly enhancement of anti-inflammatory effect of dexamethasone” (Macau University of Science and Technology, priority 2013, dated 2015).

Tests used:
Format in all cases: in vivo, Balb/c mice
CD4+CD8+ thymocytes = assay: Flow cytometry assay for detection of CD4 and CD8 expression in thymocytes; conditions: DNFB-induced DTH mice, topical application; control and model groups about 76%
Method: (§1) Male Balb/c mice, weighing 19-21 g were sensitized through topical application of 20 μl of 0.5% (v/v) DNFB in acetone onto the shaved abdomen on days 1 and 2. Challenge was then preformed on day 6 by applying DNFB (20 μl, 0.5%, v/v) on the left inner and outer ear surfaces of mice. DMY (at dosage of 1 mg/ear) and/or DEX (1.5625 μg/ml) dissolved in acetone was topically applied (20 μl) to the ears at 2nd, 24th, 48th, 72nd, hour after the challenge. The edema was calculated as the difference between the thickness of left and right ear at the 24th, 48th and 72nd h after challenge. […] The control 100 group was treated only with DNFB or solvent solution.
The animal model was conducted as mentioned in section 1.1 of Example 1 above, in which after the mice were sacrificed by cervical dislocation, the thymocytes were isolated and washed by PBS. The cells were stained by 20 μL CD4 with CD8 for 30 min avoiding from light, followed by 4% PFA to fix the cells, and flow cytometery was then conducted.

thymocytes = assay: Flow cytometry assay for detection of thymocyte apoptosis (Annexin V-FITC and PI); conditions: DNFB-induced DTH mice, model group about 72%
Method: The animal model was conducted as mentioned in section 1.1 of Example 1 above. Thymocytes were washed by cold PBS and binding buffer, resuspended in binding buffer including Annexin V-FITC, and then incubated at room temperature for 10 minutes. After adding the binding buffer containing PI, the cells were incubated on ice for another 15 minutes. The data was analyzed by flow cytometry within one hour.

[1] = system: mononuclear cell infiltrate in the ear; assay: Histological examination of ear inflammation; conditions: DNFB-treated mice, ear histology
Method: as §1
(§2) The animal model was conducted as mentioned in section 1.1 of Example 1 above. […] Antigens were retrieved by steaming samples in DAKO target retrieval buffer (DAKO) for 20 minutes. After the nonspecific binding sites were blocked, the sections were incubated overnight at 4° C. with CD4 or CD8 antibodies (Phoenix Pharmaceuticals).
(§3) Sections were stained with 3,3′-diaminobenzidine substrate and counterstained with Meyer hematoxylin and eosin.

[2] = system: signal-joint TRECs in thymocytes; assay: Quantification of signal-joint TRECs; conditions: compared with the DEX-treated animals
Method: as §1
DNA was isolated from purified thymic T cells using DNA purification kit. PCR was performed using mδRec- and ψJα-specific primers and an mδRec-ψJα fluorescent probe as described previously. The standard curves for murine TRECs were generated using a mδRec-ψJα TREC PCR product cloned into a pc DNA3.1 plasmid from Prof. Gregory D. Sempowski (Duke Human Vaccine Institute, Duke University Medical Center, Durham, N.C., USA.). The assay was performed on slides according to previous study.

thymic architecture = assay: Histological examination of thymus; conditions: compared with DEX-treated animals
Method: as §1

[3] = system: CD4+ and CD8+ cells in the ears; assay: Immunohistochemical staining of CD4 and CD8 in ear sections; conditions: immunohistochemical analysis; in comparison with the Model Group
Method: as §1, §2, §3

[4] = system: ear edema of DTH mice induced by DNFB; assay: Delay-type hypersensitivity test (DTHT) in mice: ear edema; conditions: topical, DMY 1 mg/ear and/or DEX 1.5625 μg/ml, 24th, 48th, 72nd h after challenge, vs Model Group
Method: as §1
FIGS. 1a and 1b show the effects of DEX, DMY and the combinational application of DMY and DEX (illustrated as the DMY+DEX group) on treatment of ear edema of DTH mice induced by DNFB. Edema as expressed as the increase in ear thickness (ΔT in micrometer±S.E.M.) in the DNFB experiments. Percentages of inhibition (% I) for each measurement were calculated from values for the DEX, DMY and DMY+ DEX groups with respect to those for the Model Group. Statistically significant differences with respect to the Model Group are expressed as *P<0.05 and **P<0.01 (Dunnett's t test).
The animal model was conducted as mentioned in section 1.1 of Example 1 above. […]

Row | Compound | CD4+CD8+ T cell population in thymus (CD4+CD8+ thymocytes) [%] | ratio of thymocyte apoptosis (thymocytes) [%] | number of inflammatory cells in the ear [1] | levels of signal-joint TRECs in thymocytes [2] | thymic architecture (corticomedullary junctions) (thymic architecture) | accounts of CD4+ and CD8+ cells in the treated ears [3] | effect on ear edema (increase in ear thickness, percentages of inhibition) [4]
1 | C[C@@H]1C[C@H]2[C@@H]3CCC4=CC(=O)C=C[C@]4(C)[C@@]3(F)[C@@H](O)C[C@]2(C)[C@@]1(O)C(=O)CO [DEX, dexamethasone] | 54.7 | 77.9 | – | – | – | – | –
2 | O=C1c2c(O)cc(O)cc2O[C@H](c2cc(O)c(O)c(O)c2)[C@H]1O [DMY, dihydromyricetin] | – | – | could be significantly reduced | could increase the levels of signal-joint TRECs | significantly improve the thymic architecture | shown to reduce the accounts of CD4+ and CD8+ cells | could inhibit ear edema
